According to ChEMBL document CHEMBL4507272 (2021):

Key:
[1] = biological target: Serine/threonine-protein kinase 38 (Homo sapiens) (UniProt Q15208); conditions: Compound concentration 1000.0 nM
[2] = biological target: Serine/threonine-protein kinase 35 (Homo sapiens) (UniProt Q8TDR2); conditions: Compound concentration 1000.0 nM
[3] = biological target: Serine/threonine-protein kinase NIM1 (Homo sapiens) (UniProt Q8IY84); conditions: Compound concentration 1000.0 nM
[4] = biological target: Serine/threonine-protein kinase N1 (Homo sapiens) (UniProt Q16512); conditions: Compound concentration 1000.0 nM
[5] = biological target: Mitogen-activated protein kinase 7 (Homo sapiens) (UniProt Q13164); conditions: Compound concentration 1000.0 nM
[6] = biological target: Serine/threonine-protein kinase PLK4 (Homo sapiens) (UniProt O00444); conditions: Compound concentration 1000.0 nM
[7] = biological target: Serine/threonine-protein kinase pim-1 (Homo sapiens) (UniProt P11309); conditions: Compound concentration 1000.0 nM
Sequence of Serine/threonine-protein kinase pim-1 (Homo sapiens) (P11309 whole entry, looked up): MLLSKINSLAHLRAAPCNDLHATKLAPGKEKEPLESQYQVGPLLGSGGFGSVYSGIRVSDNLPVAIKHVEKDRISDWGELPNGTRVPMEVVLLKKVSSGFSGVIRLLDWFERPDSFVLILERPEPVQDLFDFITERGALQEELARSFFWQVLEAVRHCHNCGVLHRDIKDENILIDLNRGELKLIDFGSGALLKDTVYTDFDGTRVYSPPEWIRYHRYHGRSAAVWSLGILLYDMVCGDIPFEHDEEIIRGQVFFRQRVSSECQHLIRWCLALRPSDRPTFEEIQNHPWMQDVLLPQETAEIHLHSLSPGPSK

[8] = biological target: Serine/threonine-protein kinase SIK1 (Homo sapiens) (UniProt P57059); conditions: Compound concentration 1000.0 nM
[9] = biological target: Vascular endothelial growth factor receptor 1 (Homo sapiens) (UniProt P17948); conditions: Compound concentration 1000.0 nM
[10] = biological target: Casein kinase I isoform gamma-3 (Homo sapiens) (UniProt Q9Y6M4); conditions: Compound concentration 1000.0 nM
[11] = biological target: Serine/threonine-protein kinase RIO3 (Homo sapiens) (UniProt O14730); conditions: Compound concentration 1000.0 nM
[12] = biological target: cAMP-dependent protein kinase catalytic subunit alpha (Homo sapiens) (UniProt P17612); conditions: Compound concentration 1000.0 nM
[13] = biological target: Phosphatidylinositol 4-phosphate 3-kinase C2 domain-containing subunit beta (Homo sapiens) (UniProt O00750); conditions: Compound concentration 1000.0 nM
[14] = biological target: Serine/threonine-protein kinase Nek2 (Homo sapiens) (UniProt P51955); conditions: Compound concentration 1000.0 nM
[15] = biological target: Non-receptor tyrosine-protein kinase TYK2 (Homo sapiens) (UniProt P29597); conditions: Compound concentration 1000.0 nM
[16] = biological target: Serine/threonine-protein kinase Chk2 (Homo sapiens) (UniProt O96017); conditions: Compound concentration 1000.0 nM
[17] = biological target: Mitogen-activated protein kinase 15 (Homo sapiens) (UniProt Q8TD08); conditions: Compound concentration 1000.0 nM
[18] = biological target: Calcium/calmodulin-dependent protein kinase type II subunit beta (Homo sapiens) (UniProt Q13554); conditions: Compound concentration 1000.0 nM
[19] = biological target: Ephrin type-B receptor 4 (Homo sapiens) (UniProt P54760); conditions: Compound concentration 1000.0 nM
Sequence of Ephrin type-B receptor 4 (Homo sapiens) (P54760 whole entry): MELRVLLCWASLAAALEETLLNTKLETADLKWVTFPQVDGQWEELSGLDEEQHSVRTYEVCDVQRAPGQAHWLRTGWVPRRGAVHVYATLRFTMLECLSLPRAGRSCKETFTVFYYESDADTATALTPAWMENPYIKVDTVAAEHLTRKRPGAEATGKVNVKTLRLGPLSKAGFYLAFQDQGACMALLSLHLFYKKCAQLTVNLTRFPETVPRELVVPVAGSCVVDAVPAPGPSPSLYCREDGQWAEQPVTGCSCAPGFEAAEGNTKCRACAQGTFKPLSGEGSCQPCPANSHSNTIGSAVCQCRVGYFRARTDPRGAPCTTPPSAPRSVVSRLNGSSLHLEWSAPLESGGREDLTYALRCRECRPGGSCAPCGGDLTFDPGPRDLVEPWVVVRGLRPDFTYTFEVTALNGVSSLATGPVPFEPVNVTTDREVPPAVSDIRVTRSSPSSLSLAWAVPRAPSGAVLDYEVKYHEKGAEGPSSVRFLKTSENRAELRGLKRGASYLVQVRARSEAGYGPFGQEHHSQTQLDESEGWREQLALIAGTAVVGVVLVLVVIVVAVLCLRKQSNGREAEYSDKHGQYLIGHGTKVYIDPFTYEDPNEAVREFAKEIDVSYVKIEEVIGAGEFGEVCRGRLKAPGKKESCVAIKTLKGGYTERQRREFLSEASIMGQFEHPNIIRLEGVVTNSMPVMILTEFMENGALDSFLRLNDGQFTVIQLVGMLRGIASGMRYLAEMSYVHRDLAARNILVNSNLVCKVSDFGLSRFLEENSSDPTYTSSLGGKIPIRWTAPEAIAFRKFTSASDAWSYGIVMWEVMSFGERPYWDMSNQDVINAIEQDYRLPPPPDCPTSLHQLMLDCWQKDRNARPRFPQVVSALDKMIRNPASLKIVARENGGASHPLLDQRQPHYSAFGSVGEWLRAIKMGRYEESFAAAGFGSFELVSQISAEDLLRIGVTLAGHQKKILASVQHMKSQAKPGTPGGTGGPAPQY

[20] = biological target: Cyclin-dependent kinase 11B (Homo sapiens) (UniProt P21127); conditions: Compound concentration 1000.0 nM
Sequence of Cyclin-dependent kinase 11B (Homo sapiens) (P21127 whole entry): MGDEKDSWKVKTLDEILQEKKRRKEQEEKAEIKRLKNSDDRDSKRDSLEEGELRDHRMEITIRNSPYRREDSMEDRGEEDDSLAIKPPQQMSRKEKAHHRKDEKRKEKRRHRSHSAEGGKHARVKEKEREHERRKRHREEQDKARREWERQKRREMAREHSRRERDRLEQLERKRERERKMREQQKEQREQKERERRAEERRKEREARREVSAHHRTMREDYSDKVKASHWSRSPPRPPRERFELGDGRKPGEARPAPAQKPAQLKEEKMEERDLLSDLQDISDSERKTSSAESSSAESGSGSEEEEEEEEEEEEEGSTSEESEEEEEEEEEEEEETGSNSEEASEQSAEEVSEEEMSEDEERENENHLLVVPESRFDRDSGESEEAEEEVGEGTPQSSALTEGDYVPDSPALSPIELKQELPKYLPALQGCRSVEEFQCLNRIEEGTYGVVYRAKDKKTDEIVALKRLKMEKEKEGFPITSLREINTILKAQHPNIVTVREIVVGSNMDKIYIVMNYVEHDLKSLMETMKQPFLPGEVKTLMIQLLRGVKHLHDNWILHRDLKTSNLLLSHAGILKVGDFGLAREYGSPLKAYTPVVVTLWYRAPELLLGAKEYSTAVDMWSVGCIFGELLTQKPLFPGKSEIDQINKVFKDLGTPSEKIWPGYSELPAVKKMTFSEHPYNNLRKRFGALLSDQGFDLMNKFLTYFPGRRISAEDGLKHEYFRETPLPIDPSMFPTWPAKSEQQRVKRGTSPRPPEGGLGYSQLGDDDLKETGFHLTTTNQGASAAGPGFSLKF

[21] = tested on: Hepatocyte growth factor receptor (Homo sapiens), P08581 [Y1235D]; conditions: Compound concentration 1000.0 nM
[22] = biological target: Membrane-associated tyrosine- and threonine-specific cdc2-inhibitory kinase (Homo sapiens) (UniProt Q99640); conditions: Compound concentration 1000.0 nM
Sequence of Membrane-associated tyrosine- and threonine-specific cdc2-inhibitory kinase (Homo sapiens) (Q99640 whole entry): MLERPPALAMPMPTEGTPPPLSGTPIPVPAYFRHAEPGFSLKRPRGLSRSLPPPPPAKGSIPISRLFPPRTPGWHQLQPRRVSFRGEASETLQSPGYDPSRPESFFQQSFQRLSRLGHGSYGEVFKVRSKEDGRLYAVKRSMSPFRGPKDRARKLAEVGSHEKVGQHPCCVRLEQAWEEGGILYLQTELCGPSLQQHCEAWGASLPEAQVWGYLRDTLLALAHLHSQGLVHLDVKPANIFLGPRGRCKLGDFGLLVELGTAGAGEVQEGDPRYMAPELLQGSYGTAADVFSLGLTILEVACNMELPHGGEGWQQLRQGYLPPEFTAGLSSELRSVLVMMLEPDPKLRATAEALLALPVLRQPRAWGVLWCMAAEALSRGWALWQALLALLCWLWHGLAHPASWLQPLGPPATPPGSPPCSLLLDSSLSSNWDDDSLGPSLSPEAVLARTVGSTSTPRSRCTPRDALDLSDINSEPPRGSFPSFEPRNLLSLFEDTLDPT

[23] = biological target: Serine/threonine-protein kinase Nek5 (Homo sapiens) (UniProt Q6P3R8); conditions: Compound concentration 1000.0 nM
[24] = biological target: Muscle, skeletal receptor tyrosine-protein kinase (Homo sapiens) (UniProt O15146); conditions: Compound concentration 1000.0 nM
[25] = biological target: Casein kinase I isoform alpha (Homo sapiens) (UniProt P48729); conditions: Compound concentration 1000.0 nM
Sequence of Casein kinase I isoform alpha (Homo sapiens) (P48729 2-337 limits assumed): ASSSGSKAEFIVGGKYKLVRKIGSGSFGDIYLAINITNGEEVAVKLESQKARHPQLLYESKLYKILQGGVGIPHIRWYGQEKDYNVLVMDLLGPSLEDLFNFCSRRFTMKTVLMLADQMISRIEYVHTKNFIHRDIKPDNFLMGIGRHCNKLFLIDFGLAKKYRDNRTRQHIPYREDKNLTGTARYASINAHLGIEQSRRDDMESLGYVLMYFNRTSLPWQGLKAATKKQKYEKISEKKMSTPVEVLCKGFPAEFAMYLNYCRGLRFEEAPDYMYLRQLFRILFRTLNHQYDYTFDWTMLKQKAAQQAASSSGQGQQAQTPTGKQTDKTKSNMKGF

[26] = biological target: Fibroblast growth factor receptor 3 (Homo sapiens) (UniProt P22607); conditions: Compound concentration 1000.0 nM
[27] = biological target: Ribosomal protein S6 kinase alpha-6 (Homo sapiens) (UniProt Q9UK32); conditions: Compound concentration 1000.0 nM
[28] = biological target: Mast/stem cell growth factor receptor Kit (Homo sapiens) (UniProt P10721); conditions: Compound concentration 1000.0 nM
[29] = biological target: Muscarinic acetylcholine receptor M4 (Homo sapiens) (UniProt P08173); conditions: Compound concentration 10.0 uM
[30] = tested on: Mast/stem cell growth factor receptor Kit (Homo sapiens), P10721 [L576P]; conditions: Compound concentration 1000.0 nM
[31] = biological target: Serine/threonine-protein kinase N2 (Homo sapiens) (UniProt Q16513); conditions: Compound concentration 1000.0 nM
[32] = biological target: Calcium/calmodulin-dependent protein kinase type II subunit delta (Homo sapiens) (UniProt Q13557); conditions: Compound concentration 1000.0 nM
[33] = biological target: Mitotic checkpoint serine/threonine-protein kinase BUB1 (Homo sapiens) (UniProt O43683); conditions: Compound concentration 1000.0 nM
[34] = biological target: Serine/threonine-protein kinase WNK2 (Homo sapiens) (UniProt Q9Y3S1); conditions: Compound concentration 1000.0 nM
[35] = tested on: Phosphatidylinositol 4,5-bisphosphate 3-kinase catalytic subunit alpha isoform (Homo sapiens), P42336 [E545A]; conditions: Compound concentration 1000.0 nM
Sequence of Phosphatidylinositol 4,5-bisphosphate 3-kinase catalytic subunit alpha isoform (Homo sapiens), P42336 [E545A] (P42336 whole entry E545A, canonical isoform): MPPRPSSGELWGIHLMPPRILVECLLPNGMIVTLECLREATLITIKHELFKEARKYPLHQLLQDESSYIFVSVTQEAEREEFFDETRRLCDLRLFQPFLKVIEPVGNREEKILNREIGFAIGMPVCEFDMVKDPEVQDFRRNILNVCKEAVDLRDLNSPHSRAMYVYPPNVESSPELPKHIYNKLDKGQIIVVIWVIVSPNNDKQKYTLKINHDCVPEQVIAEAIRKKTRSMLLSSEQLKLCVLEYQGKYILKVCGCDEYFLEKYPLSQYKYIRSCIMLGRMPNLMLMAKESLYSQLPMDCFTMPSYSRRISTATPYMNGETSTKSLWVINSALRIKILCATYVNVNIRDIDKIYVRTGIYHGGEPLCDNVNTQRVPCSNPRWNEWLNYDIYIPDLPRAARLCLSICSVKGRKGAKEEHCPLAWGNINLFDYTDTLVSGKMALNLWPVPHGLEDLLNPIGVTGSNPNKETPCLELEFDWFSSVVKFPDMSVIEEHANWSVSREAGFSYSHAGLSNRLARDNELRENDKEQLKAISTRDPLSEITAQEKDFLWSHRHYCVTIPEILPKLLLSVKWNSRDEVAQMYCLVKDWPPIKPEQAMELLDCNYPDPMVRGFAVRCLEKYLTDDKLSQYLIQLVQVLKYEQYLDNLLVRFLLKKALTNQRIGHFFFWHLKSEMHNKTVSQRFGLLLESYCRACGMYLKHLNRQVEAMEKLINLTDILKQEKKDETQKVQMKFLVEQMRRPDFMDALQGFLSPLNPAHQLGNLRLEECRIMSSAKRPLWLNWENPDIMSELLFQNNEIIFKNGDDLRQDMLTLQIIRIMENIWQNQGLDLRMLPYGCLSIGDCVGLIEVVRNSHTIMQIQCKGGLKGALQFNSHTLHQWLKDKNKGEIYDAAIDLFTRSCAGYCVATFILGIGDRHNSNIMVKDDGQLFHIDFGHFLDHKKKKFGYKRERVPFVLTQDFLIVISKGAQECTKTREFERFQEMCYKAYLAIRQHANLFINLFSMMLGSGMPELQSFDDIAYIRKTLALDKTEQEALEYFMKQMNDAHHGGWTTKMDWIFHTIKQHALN

[36] = biological target: Serine/threonine-protein kinase TBK1 (Homo sapiens) (UniProt Q9UHD2); conditions: Compound concentration 1000.0 nM
[37] = biological target: Serine/threonine-protein kinase ICK (Homo sapiens) (UniProt Q9UPZ9); conditions: Compound concentration 1000.0 nM
[38] = tested on: Mast/stem cell growth factor receptor Kit (Homo sapiens), P10721 [V559D,T670I]; conditions: Compound concentration 1000.0 nM
[39] = tested on: Mast/stem cell growth factor receptor Kit (Homo sapiens), P10721 [D816H]; conditions: Compound concentration 1000.0 nM
[40] = biological target: Serine/threonine-protein kinase PLK2 (Homo sapiens) (UniProt Q9NYY3); conditions: Compound concentration 1000.0 nM
[41] = biological target: Alpha-1D adrenergic receptor (Homo sapiens) (UniProt P25100); conditions: Compound concentration 10.0 uM
Sequence of Alpha-1D adrenergic receptor (Homo sapiens) (P25100 whole entry): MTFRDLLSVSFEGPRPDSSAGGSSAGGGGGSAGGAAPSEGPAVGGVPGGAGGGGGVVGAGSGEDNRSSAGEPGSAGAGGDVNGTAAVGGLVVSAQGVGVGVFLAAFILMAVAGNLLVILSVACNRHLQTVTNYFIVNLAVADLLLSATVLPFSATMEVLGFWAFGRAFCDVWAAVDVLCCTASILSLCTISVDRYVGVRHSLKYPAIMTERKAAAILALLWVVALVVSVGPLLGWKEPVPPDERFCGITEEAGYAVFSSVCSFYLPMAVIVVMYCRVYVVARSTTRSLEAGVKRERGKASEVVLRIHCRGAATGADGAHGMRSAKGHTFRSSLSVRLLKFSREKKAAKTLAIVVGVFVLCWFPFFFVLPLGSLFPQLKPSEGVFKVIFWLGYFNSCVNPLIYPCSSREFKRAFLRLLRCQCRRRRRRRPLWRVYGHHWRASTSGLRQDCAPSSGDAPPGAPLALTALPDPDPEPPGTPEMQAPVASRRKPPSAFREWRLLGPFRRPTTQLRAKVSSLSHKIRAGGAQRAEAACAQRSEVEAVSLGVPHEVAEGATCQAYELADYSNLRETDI

[42] = biological target: 5-hydroxytryptamine receptor 6 (Homo sapiens) (UniProt P50406); conditions: Compound concentration 10.0 uM
[43] = biological target: Receptor tyrosine-protein kinase erbB-3 (Homo sapiens) (UniProt P21860); conditions: Compound concentration 1000.0 nM
[44] = biological target: Aurora kinase B (Homo sapiens) (UniProt Q96GD4); conditions: Compound concentration 1000.0 nM
Sequence of Aurora kinase B (Homo sapiens) (Q96GD4 whole entry): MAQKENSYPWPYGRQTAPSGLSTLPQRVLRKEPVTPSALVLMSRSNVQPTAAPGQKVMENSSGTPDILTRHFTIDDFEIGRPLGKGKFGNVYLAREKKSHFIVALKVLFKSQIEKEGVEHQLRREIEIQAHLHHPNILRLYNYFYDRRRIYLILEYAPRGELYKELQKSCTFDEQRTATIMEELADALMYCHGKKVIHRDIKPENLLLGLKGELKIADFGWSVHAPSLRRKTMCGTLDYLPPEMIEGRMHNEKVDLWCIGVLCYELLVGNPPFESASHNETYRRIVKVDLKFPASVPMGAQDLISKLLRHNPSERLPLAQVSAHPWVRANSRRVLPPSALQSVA

[45] = biological target: Alpha-2C adrenergic receptor (Homo sapiens) (UniProt P18825); conditions: Compound concentration 10.0 uM

CC(=O)C1=C(C)N(c2cccc(C(F)(F)F)c2)C(=O)N[C@@H]1c1ccc(C#N)nc1 [BAY-678]
inactive: residual activity [1] 94.1% | residual activity [2] 85.9% | residual activity [3] 83.5% | residual activity [4] 71.1% | residual activity [5] 100% | residual activity [6] 82.7% | residual activity [7] 100% | residual activity [8] 100% | residual activity [9] 62.4% | residual activity [10] 100% | residual activity [11] 100% | residual activity [12] 92.3% | residual activity [13] 100% | residual activity [14] 100% | residual activity [15] 94.9% | residual activity [16] 85.6% | residual activity [17] 100% | residual activity [18] 95.7% | residual activity [19] 100% | residual activity [20] 100% | residual activity [21] 100% | residual activity [22] 90.6% | residual activity [23] 80.6% | residual activity [24] 100% | residual activity [25] 91.5% | residual activity [26] 96.4% | residual activity [27] 100% | residual activity [28] 83.8% | inhibition [29] -6.72% | residual activity [30] 100% | residual activity [31] 96.3% | residual activity [32] 100% | residual activity [33] 100% | residual activity [34] 94% | residual activity [35] 75.6% | residual activity [36] 89.5% | residual activity [37] 100% | residual activity [38] 96.7% | residual activity [39] 100% | residual activity [40] 97.8% | inhibition [41] 3.11% | inhibition [42] -6.02% | residual activity [43] 100% | residual activity [44] 100% | inhibition [45] 20.2%
